# Tests used:
# SW-620 = test: Growth inhibition of human SW620 cells assessed as cell growth at 100 uM incubated for 48 hrs by sulforhodamine B assay relative to control; format: functional; settings: SW-620, 48 h, read-out: Activity
# ACHN = test: Growth inhibition of human ACHN cells assessed as cell growth at 100 uM incubated for 48 hrs by sulforhodamine B assay relative to control; format: functional; settings: read-out: Activity
# 786-0 [1] = test: Growth inhibition of human 786-0 cells assessed as cell growth at 1 uM incubated for 48 hrs by sulforhodamine B assay relative to control; format: functional; settings: 786-0, 48 h, read-out: Activity
# 786-0 [2] = test: Growth inhibition of human 786-0 cells assessed as cell growth at 100 uM incubated for 48 hrs by sulforhodamine B assay relative to control; format: functional; settings: 786-0, 48 h, read-out: Activity
# PC-3 = test: Growth inhibition of human PC3 cells assessed as cell growth at 100 uM incubated for 48 hrs by sulforhodamine B assay relative to control; format: functional; settings: PC-3, 48 h, read-out: Activity
# COLO 205 = test: Growth inhibition of human COLO205 cells assessed as cell growth at 100 uM incubated for 48 hrs by sulforhodamine B assay relative to control; format: functional; settings: COLO 205, 48 h, read-out: Activity
# SF-268 = test: Growth inhibition of human SF268 cells incubated for 48 hrs by sulforhodamine B assay; format: functional, cell-based; settings: SF-268, 48 h
# SF-295 = test: Growth inhibition of human SF295 cells assessed as cell growth at 0.1 uM incubated for 48 hrs by sulforhodamine B assay relative to control; format: functional; settings: SF-295, 48 h, read-out: Activity
# RPMI-8226 = test: Growth inhibition of human RPMI8226 cells incubated for 48 hrs by sulforhodamine B assay; format: functional, cell-based; settings: RPMI-8226, 48 h
# UACC-257 = test: Growth inhibition of human UACC257 cells assessed as cell growth at 100 uM incubated for 48 hrs by sulforhodamine B assay relative to control; format: functional; settings: UACC-257, 48 h, read-out: Activity
# 786-0 [3] = test: Growth inhibition of human 786-0 cells assessed as cell growth at 0.01 uM incubated for 48 hrs by sulforhodamine B assay relative to control; format: functional; settings: 786-0, 48 h, read-out: Activity
# NCI-H23 = test: Growth inhibition of human NCI-H23 cells assessed as cell growth at 0.1 uM incubated for 48 hrs by sulforhodamine B assay relative to control; format: functional; settings: NCI-H23, 48 h, read-out: Activity
# SN12C = test: Growth inhibition of human SN12C cells incubated for 48 hrs by sulforhodamine B assay; format: functional, cell-based
# HCC 2998 [4] = test: Growth inhibition of human HCC2998 cells incubated for 48 hrs by sulforhodamine B assay; format: functional, cell-based; settings: HCC 2998, 48 h
# HT-29 = test: Growth inhibition of human HT-29 cells assessed as cell growth at 100 uM incubated for 48 hrs by sulforhodamine B assay relative to control; format: functional; settings: HT-29, 48 h, read-out: Activity
# NCI/ADR-RES = test: Growth inhibition of human NCI/ADR-RES cells assessed as cell growth at 100 uM incubated for 48 hrs by sulforhodamine B assay relative to control; format: functional; settings: read-out: Activity
# A498 = test: Growth inhibition of human A498 cells assessed as cell growth at 0.1 uM incubated for 48 hrs by sulforhodamine B assay relative to control; format: functional; settings: A498, 48 h, read-out: Activity
# Malme-3M = test: Growth inhibition of human MALME-3M cells assessed as cell growth at 1 uM incubated for 48 hrs by sulforhodamine B assay relative to control; format: functional; settings: read-out: Activity
# SK-MEL-5 = test: Growth inhibition of human SK-MEL-5 cells assessed as cell growth at 1 uM incubated for 48 hrs by sulforhodamine B assay relative to control; format: functional; settings: SK-MEL-5, 48 h, read-out: Activity
# HCC 2998 [5] = test: Growth inhibition of human HCC2998 cells assessed as cell growth at 0.1 uM incubated for 48 hrs by sulforhodamine B assay relative to control; format: functional; settings: HCC 2998, 48 h, read-out: Activity
# SNB-75 = test: Growth inhibition of human SNB75 cells assessed as cell growth at 0.01 uM incubated for 48 hrs by sulforhodamine B assay relative to control; format: functional; settings: SNB-75, 48 h, read-out: Activity
# NCI-H522 = test: Growth inhibition of human NCI-H522 cells incubated for 48 hrs by sulforhodamine B assay; format: functional, cell-based; settings: NCI-H522, 48 h
# LOX IMVI = test: Growth inhibition of human LOXIMVI cells assessed as cell growth at 0.1 uM incubated for 48 hrs by sulforhodamine B assay relative to control; format: functional; settings: read-out: Activity
# HCT-15 = test: Growth inhibition of human HCT15 cells incubated for 48 hrs by sulforhodamine B assay; format: functional, cell-based; settings: HCT-15, 48 h
# SK-OV-3 = test: Growth inhibition of human SKOV3 cells assessed as cell growth at 0.1 uM incubated for 48 hrs by sulforhodamine B assay relative to control; format: functional; settings: SK-OV-3, 48 h, read-out: Activity
# U-251 = test: Growth inhibition of human U251 cells incubated for 48 hrs by sulforhodamine B assay; format: functional, cell-based; settings: U-251, 48 h
# UACC-62 = test: Growth inhibition of human UACC62 cells incubated for 48 hrs by sulforhodamine B assay; format: functional, cell-based; settings: UACC-62, 48 h
# [6] = read-out: LC50 (the source's name)
# [7] = read-out: pLC50 (the source's name) (converted)
smiles,measurement,setting,value
O=C(Nc1cccc(-n2cc(-c3ccncc3)c(-c3cc(O)cc(Cl)c3)n2)c1)Nc1ccc(Cl)c(Cl)c1,growth at 100 µM,SW-620,-36%
same,growth at 100 µM,ACHN,-33%
same,growth at 1 µM,786-0 [1],71%
same,growth at 100 µM,786-0 [2],-58%
same,growth at 100 µM,PC-3,-35%
same,growth at 100 µM,COLO 205,-88%
same,GI50,SF-268; read-out: GI50,3.22 µM
same,CC50,SF-268; [6],> 100 µM
same,TGI,SF-268; read-out: TGI,32.6 µM
same,GI50,SF-268; read-out: pGI50 (converted),3.24 µM
same,CC50,SF-268; [7],> 100 µM
same,TGI,SF-268; read-out: pTGI (converted),33.1 µM
same,growth at 0.1 µM,SF-295,87%
same,IC50,RPMI-8226,1.44 µM
same,GI50,RPMI-8226; read-out: GI50,1.44 µM
same,CC50,RPMI-8226; [6],> 100 µM
same,TGI,RPMI-8226; read-out: TGI,43 µM
same,GI50,RPMI-8226; read-out: pGI50 (converted),1.45 µM
same,CC50,RPMI-8226; [7],> 100 µM
same,TGI,RPMI-8226; read-out: pTGI (converted),4.27 µM
same,growth at 100 µM,UACC-257,-92%
same,growth at 0.01 µM,786-0 [3],92%
same,growth at 0.1 µM,NCI-H23,97%
same,GI50,SN12C; read-out: GI50,2.78 µM
same,LC50,SN12C; read-out: LC50,> 100 µM
same,TGI,SN12C; read-out: TGI,10.1 µM
same,GI50,SN12C; read-out: pGI50 (converted),2.75 µM
same,LC50,SN12C; read-out: pLC50 (converted),> 100 µM
same,TGI,SN12C; read-out: pTGI (converted),18.2 µM
same,GI50,HCC 2998 [4]; read-out: GI50,2.93 µM
same,CC50,HCC 2998 [4]; [6],7.51 µM
same,TGI,HCC 2998 [4]; read-out: TGI,89.9 µM
same,GI50,HCC 2998 [4]; read-out: pGI50 (converted),2.95 µM
same,CC50,HCC 2998 [4]; [7],77.6 µM
same,TGI,HCC 2998 [4]; read-out: pTGI (converted),8.91 µM
same,growth at 100 µM,HT-29,-70%
same,growth at 100 µM,NCI/ADR-RES,2%
same,growth at 0.1 µM,A498,94%
same,growth at 1 µM,Malme-3M,76%
same,growth at 1 µM,SK-MEL-5,86%
same,growth at 0.1 µM,HCC 2998 [5],110%
same,growth at 0.01 µM,SNB-75,94%
same,GI50,NCI-H522; read-out: GI50,1.1 µM
same,CC50,NCI-H522; [6],5.99 µM
same,TGI,NCI-H522; read-out: TGI,31.4 µM
same,GI50,NCI-H522; read-out: pGI50 (converted),1.1 µM
same,CC50,NCI-H522; [7],8.91 µM
same,TGI,NCI-H522; read-out: pTGI (converted),3.16 µM
same,growth at 0.1 µM,LOX IMVI,105%
same,GI50,HCT-15; read-out: GI50,2.1 µM
same,CC50,HCT-15; [6],> 100 µM
same,TGI,HCT-15; read-out: TGI,80.4 µM
same,GI50,HCT-15; read-out: pGI50 (converted),2.09 µM
same,CC50,HCT-15; [7],> 100 µM
same,TGI,HCT-15; read-out: pTGI (converted),8.13 µM
same,growth at 0.1 µM,SK-OV-3,103%
same,IC50,U-251,1.44 µM
same,GI50,U-251; read-out: GI50,1.44 µM
same,CC50,U-251; [6],5.51 µM
same,TGI,U-251; read-out: TGI,30 µM
same,GI50,U-251; read-out: pGI50 (converted),1.45 µM
same,CC50,U-251; [7],6.61 µM
same,TGI,U-251; read-out: pTGI (converted),3.09 µM
same,IC50,UACC-62,1.69 µM
same,GI50,UACC-62; read-out: GI50,1.59 µM
same,CC50,UACC-62; [6],5.38 µM
same,TGI,UACC-62; read-out: TGI,37.6 µM
same,GI50,UACC-62; read-out: pGI50 (converted),1.7 µM
same,CC50,UACC-62; [7],8.32 µM
same,TGI,UACC-62; read-out: pTGI (converted),3.72 µM

# Reference: ChEMBL document CHEMBL4308841, “Synthesis, in vitro antiproliferative activity, and kinase inhibitory effects of pyrazole-containing diarylureas and diarylamides” (Eur J Med Chem, 2018)
